Like-named read-outs stand apart in the source and are kept apart here. Square brackets hold non-standard residues; d marks the D form. Ends that are not written are not given here. pY = N[C@@H](Cc1ccc(OP(=O)(O)O)cc1)C(=O)O

Data set [1] concerns MOLM-13Luc/CBLock cells in NSG mice.
Data set [2] is described as follows: Solubility as noted by the authors. It counts as physicochemical. The settings on record: qualitative, aqueous solution.
Another data set deals with CBL mutant 70Z. Nature of the data set: GFP-trap co-immunoprecipitation with Myc-tagged CBL-70Z in HEK293 cells. In kind it is cell-based. The settings on record: expressed as GFP-CBLock variants in HEK293 cells. Here is the method:
The cells were pelleted and lysed in IP lysis buffer (50 mM Tris-HCl pH 7.5, 150 mM NaCl, 1 mM EDTA, 1% IGEPAL CA-630, 10% glycerol, 0.5 mM DTT, and cOmplete protease inhibitor cocktail) to prepare the whole cell lysates. Immunoprecipitation and immunoblotting were performed using the lysates as described before.[28] For each regular immunoprecipitation reaction, 1 mg freshly prepared whole cell lysate was incubated with primary antibodies at 4 °C for 4 h on a rotatory shaker. […] Alternatively for each reaction, 1 mg freshly prepared whole cell lysate was incubated overnight with antibody- or immunoglobulin (Ig)G-conjugated agarose beads. The next day beads were washed three times with IP lysis buffer and once with PBS. […] This was followed by similar washing steps as mentioned before. The beads were then either processed for mass spectrometry or immunoprecipitated proteins were eluted at 95 °C in 40 μL 2X loading dye. A previous method was used to perform immunoblotting[51] and the immunoblots were scanned using an Odyssey CLx Imaging System (LI-COR Biosciences).

In data set [3] the test system is CBL (47–435) R139C/D435C variant (diCys). Briefly: Disulfide bond formation assay. It counts as biochemical. The settings on record: CBL 47–435 diCys, SDS-PAGE, n = 3. The procedure:
CBL variant mixtures were prepared at room temperature as described previously,[7] keeping aside a sample portion for zero-time point. Removal of DTT using a Zeba spin desalting column (Thermo Scientific) initiated the reactions. At indicated time points, samples were removed and quenched with 20 mM N-ethylmaleimide (NEM; Sigma) for 10 min and mixed with 4X SDS loading buffer. DTT (100 mM) was added to prepare the reduced samples. The samples were resolved by SDS-PAGE and the gels stained with Coomassie blue were scanned. The disulfide-bonded (D) and unmodified species (U) were quantified using the Image Studio software. Three independent experiments were performed, and curves for the disulfide bond fractions from each reaction were generated using GraphPad Prism.

As for `CC[C@H](C)[C@H](NC(=O)[C@H](Cc1c[nH]c2ccccc12)NC(=O)[C@H](CO)NC(=O)[C@H](CC(=O)O)NC(=O)[C@H](CCSC)NC(=O)[C@H](CCC(=O)O)NC(=O)[C@H](CCC(=O)O)NC(=O)[C@@H](NC(=O)[C@@H](NC(=O)[C@@H](N)CCSC)[C@@H](C)O)C(C)C)C(=O)N[C@@H](CCCCN)C(=O)N[C@@H](CO)C(=O)N[C@@H](Cc1c[nH]c2ccccc12)C(=O)N[C@@H](CC(=O)O)C(=O)N[C@@H](CCC(N)=O)C(=O)N[C@@H](CCCNC(=N)N)C(=O)O` [CBLock], the Body weight entry in data set [1] (cohort two) is reported as “no marked changes in body weights”; in data set [1] (first experiment, dox vs vehicle) it was “no obvious difference in body weight”. Besides, the Solubility result in data set [2] is “enhanced solubility in aqueous solution”. As to “CBLock-DM: CBLock mutant D7A/I10A expressed as GFP or iRFP fusion (MTVEEMASWAKSWDQR; also: fused to GFP or iRFP)”, the “Binding to CBL mutant 70Z” value in the data set on CBL mutant 70Z is reported as “failed to bind the CBL mutant 70Z”. On to IKDWQDRSVWESMTME [CBLock-Sc2], for which the “Binding to CBL mutant 70Z” value in the data set with CBL mutant 70Z is given as “failed to bind the CBL mutant 70Z”.

Regarding SMEKTDQWRMVEIDSW [CBLock-Sc1], the “Binding to CBL mutant 70Z” value in the data set on CBL mutant 70Z is given as “failed to bind the CBL mutant 70Z”. With “STVSFNP[pY]EPTGGPWG [pSYK, phosphotyrosine substrate peptide from SYK]”, in data set [3], the “Effect on diCys disulfide bond formation” value was “prevented formation of the diCys disulfide bond”. In the case of “TLNSDG(p)YTPEPA [pZAP70, phosphotyrosine substrate peptide from ZAP70]”, the “Effect on diCys disulfide bond formation” value in data set [3] is reported as “prevented formation of the diCys disulfide bond”.

These data come from article PMC12461627, “Locking CBL TKBD in its native conformation presents a novel therapeutic opportunity in mutant CBL-dependent leukemia” (Molecular Therapy, 2025).
